# Results as given in patent US20160009752A1, “[…]-OXIMINO-AMINOALKYLETHERS AND PROCESS FOR PREPARATION THEREOF, USEFUL AS ANTIDIABETIC AND […] AGENTS” (COUNCIL OF SCIENTIFIC & INDUSTRIAL RESEARCH, priority 2013, published 2016).
# Read-outs that look alike come from different tables or passages of the source. Marks after values point to notes of the source that are not given here.
# Columns and labels:
# sucrose loaded rat = experiment: Sucrose loaded rat model (SLM), oral tolerance test; format: in vivo; set-up: % Antihyperglycemic activity SLM: concentration or dose not given beside the values
# Description: On the day of experiment blood glucose of all the overnight fasted animals was checked by Glucostrips (Roche) using Glucometer (ACCU-CHEK II; Roche Diagnostics, USA). […] Animals were divided into groups consisting of five animals in each. […] The test compounds and standard drug was always prepared in the vehicle 1% gum acacia. […] Food (not water) was removed from the cages during the experimental period. […] Comparing the AUC of test sample or drug treated groups compared to control group determined the percent improvement in OGTT by test sample and standard drugs and termed as antihyperglycaemic activity. Statistical analysis between the groups was done by employing Students t test
# L6 myotubes = experiment: 2-3H-deoxyglucose uptake by skeletal muscle cells; format: cell-based, rat; conditions: for 2-deoxyglucose uptake, fold vs. control: 16 h
# Method: The fold increase in 2-deoxy-glucose uptake in the presence of test compound by rat skeletal muscle cells (L-6 myotubes) was considered as % antihyperglycemic activity of the test compound which was carried out as follows. L6 myotubes were incubated with increasing concentrations of 14b and the standard drug rosiglitazone (10 μM) for 16 h. After incubation glucose uptake was assessed for 5 min in HEPES-buffered saline [140 mM NaCl, 20 mM HEPES, 5 mM KCl, 2.5 mM MgSO4, 1 mM CaCl2 (pH 7.4)] containing 10 μM 2-deoxyglucose (0.5 μCi/ml 2-[^3H]-deoxyglucose) at room temperature. Subsequently cells were rinsed with an ice-cold solution containing 0.9% NaCl and 20 mM D-glucose. To quantify the radioactivity incorporated, cells were lysed with 0.05 N NaOH and lysates were counted with scintillation fluid in a β-counter. Nonspecific uptake was determined in the presence of cytochalasin B (50 μM) during the assay, and these values were subtracted from all other values. Glucose uptake was measured in triplicate and normalized to total protein, was expressed as fold increase with respect to control cells.
# [1] = test system: high fructose high fat fed Syrian golden hamsters; experiment: Antidyslipidemic activity in high fructose high fat fed Syrian golden hamsters; format: in vivo
# Method: Male Syrian golden hamsters weighing 100-120 g were divided into groups each containing six animals. Dyslipidemia was produced by feeding the animals with high fructose high fat diet (60% fructose, 13% fat) for 30 to 40 days. Dyslipidemic hamsters were divided into groups based on their Serum lipid profile. The dyslipidemic animals had free access to HFD and water throughout the experimental period. The fine suspension of 14b was fed orally at a dose of 30 mg/kg for 7 days to the animals. Control animals were given drug vehicle only, served as sham treated control. Body weight and diet intake of each animal group were recorded daily to check the effect of the test samples on food intake and body weight of the animals. At the end of the experiment period i.e. on day 8th, the blood of each animal was withdrawn from retro-orbital plexus. After keeping the tubes for 15 min. in cold, Serum was separated. Biochemical analysis of Serum was performed on the same day for triglycerides (TG), total cholesterol (TC) and HDL-cholesterol and LDL-cholesterol contents using Cobas Integra 400 plus analyzer kits. All statistical analysis will be performed with Graph Pad Prism Software. One way ANOVA, all pair wise multiple comparison procedure (Tukey test). Data will be reported as mean±SEM.
# [2] = Pharmacokinetic study after oral and intravenous dose in rats; format: in vivo; set-up: Vd/F / Vd: unit not given here; conditions: rat
# Description: In order to study its bioavailability, the method of its quantitative determination in plasma matrices in rat was developed and validated. […] The method was applied in the analysis of PK samples obtained after oral and intravenous dose administration in rats.
# [3] = Stability studies in rat plasma samples; format: in vitro ADME; conditions: freeze-thaw cycle, bench top, dry residue and long term conditions
# Description: The plasma of the rat treated with compound 14b was then processed for the stability study. The compound is found to be stable during freeze-thaw cycle, on the bench top, dry residue and long term conditions after extraction from plasma.
compound,measurement,setting,value
"C/C(=N\OCCN1CCCCC1)[C@H]1CC[C@H]2[C@@H]3CC=C4C[C@@H](O)CC[C@]4(C)[C@H]3CC[C@]12C [Compound 14b, 3β-Hydroxy-pregna-5-en-20-one-O-(2-piperidin-1-yl-ethyl)-oxime]","Blood glucose profile, 0 min post glucose load",sucrose loaded rat; 100 mg/kg,94.2 ± 2.6 mg/dL
same,"Blood glucose profile, 30 min post glucose load",sucrose loaded rat; 100 mg/kg,120.8 ± 2.1 mg/dL
same,"Blood glucose profile, 60 min post glucose load",sucrose loaded rat; 100 mg/kg,101.4 ± 2.9 mg/dL
same,"Blood glucose profile, 90 min post glucose load",sucrose loaded rat; 100 mg/kg,89.4 ± 3.3 mg/dL
same,"Blood glucose profile, 120 min post glucose load",sucrose loaded rat; 100 mg/kg,69.4 ± 2.3 mg/dL
same,% Antihyperglycemic activity SLM,"sucrose loaded rat; Table 2, sucrose loaded rat",24.4%
same,"anti-diabetic activity, in words",sucrose loaded rat; all the models including db/+ mice models,better anti-diabetic activity
same,"2-deoxyglucose uptake, fold vs. control",L6 myotubes; 1.0 μM,1.59±0.28 fold
same,"2-deoxyglucose uptake, fold vs. control",L6 myotubes; 2.5 μM,2.61±0.45 fold
same,"2-deoxyglucose uptake, fold vs. control",L6 myotubes; 5.0 μM,2.88±0.74 fold
same,"2-deoxyglucose uptake, fold vs. control",L6 myotubes; 10 μM,3.37±0.12 fold
same,glucose uptake in presence of cytochalasin-B,L6 myotubes; cytochalasin-B 50 μM added to transport solution,completely blocked
same,minimum concentration increasing glucose uptake to a significant level,L6 myotubes; p<0.05,1.0 µM
same,enhancement of lipoprotein lipase,[1]; 30 mg/kg oral,19.4%
same,enhancement of serum HDL-cholesterol,[1]; 30 mg/kg oral,17.8%
same,lowering of LDL-cholesterol (LDL-C) level,[1]; 30 mg/kg oral,32.3%
same,lowering of non-esterified fatty acid (NEFA),[1]; 30 mg/kg oral,12.3%
same,lowering of serum glycerol level,[1]; 30 mg/kg oral,25.7%
same,lowering of serum triglycerides level (TG),[1]; 30 mg/kg oral,32.8%
same,lowering of total cholesterol (T-Chol) level,[1]; 30 mg/kg oral,23.1%
same,"Chol, change vs HFD control (in parentheses)","[1]; 30 mg/kg p.o., 7 days",(−23.1)* %
same,"Glycerol, change vs HFD control (in parentheses)","[1]; 30 mg/kg p.o., 7 days",(−25.7) %
same,"HDL-C, change vs HFD control (in parentheses)","[1]; 30 mg/kg p.o., 7 days",(+17.8) %
same,"LDL-C, change vs HFD control (in parentheses)","[1]; 30 mg/kg p.o., 7 days",(−32.3)* %
same,"Lipoprotein lipase, change vs HFD control (in parentheses)","[1]; 30 mg/kg p.o., 7 days",(+19.4) %
same,"NEFA, change vs HFD control (in parentheses)","[1]; 30 mg/kg p.o., 7 days",(−12.3) %
same,"TG, change vs HFD control (in parentheses)","[1]; 30 mg/kg p.o., 7 days",(−32.8)* %
same,Chol,"[1]; 30 mg/kg p.o., 7 days, serum",257.2 ± 22.4 mg/dL
same,Glycerol,"[1]; 30 mg/kg p.o., 7 days, serum",1004.9 ± 40.2 µmol/L
same,HDL-C,"[1]; 30 mg/kg p.o., 7 days, serum",168.2 ± 8.90 mg/dL
same,LDL-C,"[1]; 30 mg/kg p.o., 7 days, serum",179.6 ± 13.2 mg/dL
same,Lipoprotein lipase,"[1]; 30 mg/kg p.o., 7 days, serum",36.3 ± 3.90 U/L
same,NEFA,"[1]; 30 mg/kg p.o., 7 days, serum",5.70 ± 0.42 mmol/L
same,TG,"[1]; 30 mg/kg p.o., 7 days, serum",501.8 ± 45.7 mg/dL
same,"effect on body weight, in words","[1]; vs control group, FIG. 10",effectively inhibited the rise in body weight
same,"absorption, in words",[2]; oral dosing,slow absorption
same,time at which plasma concentrations peaked post-dose,[2]; oral dosing,≥ 10 h
same,AUC(0-t),"[2]; plasma, intravenous route",826 ± 88.7 ng·h/mL
same,C0,"[2]; plasma, intravenous route",166 ± 90.2 ng/mL
same,MRT,"[2]; plasma, intravenous route",25.3 ± 1.99 h
same,clearance,"[2]; plasma, intravenous route",206 mL/min/kg
same,half-life,"[2]; plasma, intravenous route, read-out: T1/2 (converted)",15.4 ± 1.25 h
same,Vd,"[2]; plasma, intravenous route, read-out: Vz",268 ± 11.3
same,AUC(0-inf),"[2]; plasma, oral route",1210 ± 166 ng·h/mL
same,CL/F,"[2]; plasma, oral route",603 mL/min/kg
same,Cmax,"[2]; plasma, oral route",40.4 ± 7.03 ng/mL
same,MRT,"[2]; plasma, oral route",23.2 ± 1.31 h
same,bioavailability,"[2]; plasma, oral route",33.6%
same,half-life,"[2]; plasma, oral route, read-out: T1/2 (converted)",14.3 ± 0.95 h
same,Vd/F,"[2]; plasma, oral route, read-out: Vz/F",739 ± 87.1
same,half-life,"[2]; plasma, route not stated, read-out: elimination half-life",> 14 h
same,"clearance, in words",[2],large clearance
same,"bio-availability, in words",[2]; in vivo,good bio-availability
same,stability after extraction from plasma,[3],stable
